The subject of assay [1] is BN rat DNCB repetitive application dermatitis model. Description: Suppressive action on BN rat DNCB repetitive application dermatitis model. It counts as in vivo. Particulars: dose 2 mg/kg, oral once a day; AUC of ear thickness increase vs solvent control; male BN rat. The procedure: Suppressive Action on BN Rat DNCB Repetitive Application Dermatitis Model
A 8-week-old male rat was sensitized by applying 30 μL of 1.5 wt % solution of dinitrochlorobenzene (DNCB) dissolved in acetone:olive oil=4:1 solution to the right ear on day 1 and 3 days later. Starting from one week thereafter, the same solution was consecutively applied to the right ear every other day in total of 6 times, whereby chronic dermatitis was induced in which the skin thickness increases with time. As for the level of dermatitis, the thickness was measured with a dial gauge thickness before application of the solution, and expressed by the difference from the measured thickness of the right ear immediately before induction on day 1 of the induction. The drug was suspended in 0.5 wt % tragacanth, and orally administered once a day immediately before induction on day 1 of the induction and after 24 hr value measurement the next day. The changes in the ear tumentia with time were monitored, and the area under the curve in a graph showing the values up to 48 hr after the final induction was calculated, from which the percent suppression relative to the area of the solvent control group was determined. As a comparison control compound, prednisolone, which is a steroid, was used.

Assay [2] has as its system TMA (trimellitic anhydride) repetitive application dermatitis model. The assay can be described thus: Suppressive action on TMA (trimellitic anhydride) repetitive application dermatitis model. It counts as in vivo, mice. The settings on record: for inhibition in vivo at 20 mg/kg: Mus musculus, 8 h, oral twice (30 min before and 4 hr after induction), ear thickness vs solvent control, male BALB/c mice, read-out: right ear suppression (%) at 8 hr after final induction.

As to `O=C(c1ccc(Cl)cc1)N1CCC(N(C(=O)CN2CCOCC2)C2CCCCC2)CC1` [Example 65, N-[1-(4-chlorobenzoyl)piperidin-4-yl]-N-cyclohexyl-2-(morpholin-4-yl)acetamide], the “suppression (%) at 48 hr after final induction” value in assay [1] stood at 20.5%. In addition, the inhibition in vivo at 20 mg/kg in assay [2] was found to be 41%.

Take `O=C(O)c1cccc(N(C(=O)CN2CCCC2)C2CCN(C(=O)c3ccc(C(F)(F)F)cc3)CC2)c1` [Example 227, N-(3-carboxylphenyl)-2-(pyrrolidin-1-yl)-N-[1-(4-trifluoromethylbenzoyl)piperidin-4-yl]acetamide]: the “right ear suppression (%) at 8 hr after final induction” value in assay [2] (mouse, in vivo, po, 80 mg/kg) is on record as 57.2%. Consider `C[C@]12C=CC(=O)C=C1CC[C@@H]1[C@@H]2[C@@H](O)C[C@@]2(C)[C@H]1CC[C@]2(O)C(=O)CO` [prednisolone, reference compound], for which the “suppression (%) at 48 hr after final induction” value in assay [1] is 44.0%. Moreover, the inhibition in vivo at 20 mg/kg in assay [2] was 67.8%.

These data come from patent publication US20100179118A1, “CYCLIC AMINOALKYLCARBOXAMIDE DERIVATIVE” (DAINIPPON SUMITOMO PHARMA CO., LTD., priority 2006, published 2010).
